The subject of one test is HCT116 cells. The test is described as follows: α1-antitrypsin (AAT) secretion level (ELISA) from HCT116 cells. It is filed as cell-based. From the text: (§1) For expression of the FVIII and FV full-length and deletion mutant proteins in mammalian cells, the codon-optimized FVIII and FV genes were inserted into the p3XFLAG-CMV-14 Expression Vector and p3XFLAG-CMV-9 Expression Vector, respectively (Sigma-Aldrich, St. Louis, MO). For the expression of the wild-type and mutated AAT, EPO, and sFγRIIIa in mammalian cells, the corresponding genes (purchased from FASMAC Co., Ltd., Atsuki, Japan) were inserted into the p3XFLAG-CMV-9 Expression Vector (Sigma-Aldrich).
HCT116 and its mutated cells as well as HEK293T were maintained in Dulbecco’s modified Eagle’s medium (DMEM) supplemented with 10% fetal bovine serum in 5% CO2 at 37 °C. For complementary DNA (cDNA) transfection, cells were grown overnight and transfected using Polyethylenimine “Max” (Polysciences Inc.) as described previously. Expi293F cells (Thermo Fisher Scientific, Waltham, MA) were maintained in Expi293 Expression Medium (Thermo Fisher Scientific) in 5% CO2 at 37 °C on an orbital shaker platform rotating at 125 r.p.m. For cDNA transfection, cells were transfected with the ExpiFectamine 293 Transfection Kit (Thermo Fisher Scientific Inc.). Protein expression was performed in serum-free medium.
(§2) The secreted levels of FVIII and FV antigens in the culture medium were determined with an sandwich enzyme-linked immunosorbent assay (ELISA) method using the VisuLize FVIII Antigen Kit (Affinity Biologicals Inc., Ancaster, ON) and the Asssay Max™ Human Factor V ELISA Kit (ASSAYPRO, MO), respectively. The secreted levels of AAT and EPO antigens in the culture medium were determined with an ELASA method using the anti-AAT antibody (Agilent, Santa Clara, CA) and anti-Flag M2 antibody (Sigma-Aldrich), respectively.

The target in test [1] is T1, MCFD2 (Homo sapiens, UniProt Q8NI22).
T1 construct: The preparation of ERGIC-53^CRD, MCFD2, and their complexes was performed as previously described; made in house
T1 sequence (Q8NI22 27-146): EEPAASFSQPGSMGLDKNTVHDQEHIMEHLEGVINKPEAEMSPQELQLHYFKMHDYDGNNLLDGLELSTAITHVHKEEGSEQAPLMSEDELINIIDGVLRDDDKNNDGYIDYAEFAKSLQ
Put plainly: NMR chemical shift perturbation of [15N]MCFD2 upon peptide addition. It is filed as binding.

The target in test [2] is T2, MCFD2/ERGIC-53^CRD complex (Homo sapiens, UniProt P49257+Q8NI22).
T2 construct: made in house
T2 sequence (Q8NI22 27-146): T1 sequence (Q8NI22 27-146)
T2 sequence (P49257 44-267 partner limits assumed): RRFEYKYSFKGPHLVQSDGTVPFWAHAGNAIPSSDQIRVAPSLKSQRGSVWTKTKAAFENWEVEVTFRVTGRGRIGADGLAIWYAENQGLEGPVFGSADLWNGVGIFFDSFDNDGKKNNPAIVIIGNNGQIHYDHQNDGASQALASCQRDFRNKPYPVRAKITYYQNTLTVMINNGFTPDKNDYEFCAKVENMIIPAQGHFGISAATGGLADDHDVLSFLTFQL
Put plainly: NMR titration (peak attenuation) of [15N]FVIII-derived peptide with MCFD2/ERGIC-53CRD. It is filed as binding. Here is the method:
(§3) The preparation of ERGIC-53^CRD, MCFD2, and their complexes was performed as previously described[16],[18]. FVIII fragment (Asn776–Asp838) was prepared using the protocol described previously. The DNA fragment encoding residues Asn776–Asp838 of FVIII was cloned into the ubiquitin (Ub)-fused pET28a plasmid. The peptide fragment was expressed as a Ub-fused protein in Luria–Bertani broth or M9 minimal medium supplemented with [^15N]NH4Cl and/or [^13C]glucose for NMR experiments. The Ub-fused FVIII peptide was purified with immobilized Ni^2+-affinity chromatography and then digested with Ub carboxyl-terminal hydrolase (YUH1). The resultant peptide was purified by reversed-phase chromatography.
(§4) NMR measurements were performed using AVANCE 800 and AVANCE 500 spectrometers each equipped with a 5-mm triple-resonance cryogenic probe (Bruker BioSpin, Fallanden, Switzerland). The NMR data were processed and analyzed using TopSpin (Bruker BioSpin) and SPARKY software.
(§5) The chemical shifts of the FVIII fragment (Asn776–Asp838) were assigned by a standard protocol[18],[25]. To obtain the dissociation constant based on NMR peak attenuation, 0.1 mM [^15N]FVIII fragment was titrated with 0.02–0.3 mM of MCFD2/ERGIC-53^CRD or MCFD2 only in 20 mM 2-(N-morpholino) ethanesulfonic acid (MES; pH 6.0) containing 10 mM CaCl2, 150 mM NaCl, and 10% (v/v) D2O. […]

In test [3] the target is T1, MCFD2. The test is described as follows: NMR titration (peak attenuation) of [15N]FVIII-derived peptide with MCFD2 only. It is filed as binding. To be noted: absence of ERGIC-53CRD, 0.1 mM [15N]FVIII fragment, 0.02–0.3 mM MCFD2, 20 mM MES pH 6.0, 10 mM CaCl2, 150 mM NaCl, 10% D2O, read-out: dissociation constant. Here is the method:
as §3, §4, §5

The target in test [4] is T1, MCFD2. The note with it: Arg44–His56; cited from earlier work.
The next test relates to COS-7 cells. Put plainly: FV secretion level (ELISA) from COS-7 cells. It is filed as cell-based.
Text: as §1, §2
(An ELISA detects its analyte on a solid surface through an enzyme-linked reagent.)

Data on 6 substances can be found in article PMC7069976, “Improved secretion of glycoproteins using an N-glycan-restricted passport sequence tag recognized by cargo receptor” (Nature Communications, 2020).

pKd: −log10 of the molar value.

On to “ATZ-mutant: ATZ-mutant of alpha 1-antitrypsin, with or without C-terminal SDLLMLLRQS motif”, for which, in the test on HCT116 cells (ATZ-mutant of alpha1-antitrypsin, HCT116, ELISA, n = 3), the “ATZ-mutant secretion with vs without C-terminal motif” value is “did not observe significant difference”.

Consider “AAT: human α1-antitrypsin, three N-glycosylation sites”, for which the “AAT secretion level, average” value with HCT116 cells (HCT116, Average, n = 3 independent transfections, AAT = 1) turned out to be 1. Besides, the AAT secretion level in the test on HCT116 cells (HCT116, replicate 1) came out at 1.145; in the test on HCT116 cells (HCT116, replicate 2) it was 1.033; with HCT116 cells (HCT116, replicate 3) it was 0.8224.

DPPSDLLLLKQSNSSKILVGRWHLASEK: the “interaction of FV-derived peptide with MCFD2” value on MCFD2 [1] (two molar equivalents, with vs without ERGIC-53CRD-derived peptide, pH 6.0, 2% DMSO-d6, 303 K) is reported as “interacts with the EF-hand helices of MCFD2 in an ERGIC-53^CRD-dependent manner”.

Turning to “DPPSDLLLLKQSNSSKILVGRWHLASEK [FVIII-derived peptide, FVIII fragment residues Asn776–Asp838, expressed as Ub-fused protein and cleaved with YUH1]”, the “attenuation of NMR peak intensities upon addition of MCFD2/ERGIC-53CRD” value in test [2] (15N-labeled peptide 0.1 mM, one molar equivalent, pH 6.0, 283 K) was “significant attenuation in peak intensities for the region spanning residues 806–819”. For the same substance, the pKd in test [2] (NMR peak attenuation, 0.1 mM [15N]FVIII fragment titrated with 0.02–0.3 mM MCFD2/ERGIC-53CRD, 20 mM MES pH 6.0, 10 mM CaCl2, 150 mM NaCl, 10% D2O, read-out: dissociation constant) is 4.96; with MCFD2 [3] it was 3.92. In addition, on MCFD2 [1] (two molar equivalents of peptide, with vs without five equivalents ERGIC-53CRD-derived tridecapeptide, pH 6.0, 303 K), the “chemical shift changes of MCFD2 induced by FVIII-derived peptide” value is listed as “markedly enhanced spectral changes in the presence of the ERGIC-53-derived tridecapeptide”.

With RRFEYKYSFKGPH, the “chemical shift changes of MCFD2 induced by ERGIC-53CRD-derived tridecapeptide” value on MCFD2 [4] is given as “induces widespread chemical shift changes of MCFD2”.

As to FV: recombinant wild-type factor V, the “FV secretion level (Supplementary Fig. 7B), average” value with COS-7 cells (Average, n = 3, FV = 1) is on record as 1. For the same substance, the “FV secretion level (Supplementary Fig. 7B)” value in the test on COS-7 cells (replicate 1) was determined as 1.05; with COS-7 cells (replicate 2), 0.9799; with COS-7 cells (replicate 3) it was 0.9702.
